Type in all cases: cell-based
The subject of experiment [1] is human colorectal adenocarcinoma cells (DLD-1). Nature of the experiment: MTT anti-proliferative assay, DLD-1 (Examples 3-12). Particulars: 200 μg/ml; for % inhibition / % stim. / Mean OD (570 nm): 48 hours. The protocol:
(§1) 5-phenylpenta-2,4-dienoic acid was assessed for its ability to modulate the viability and proliferation of human colorectal adenocarcinoma cells (DLD-1); human colon cancer cell line (HCT-116); human gastric carcinoma cell line (NCI-N87); and human oesophageal squamous cell carcinoma cell line (KYSE-30) as assessed by the MTT assay. The positive control, 5-fluorouracil (5-FU) was included at three concentrations; in addition to an unsupplemented cell control as a negative control in the study. The 5-phenylpenta-2,4-dienoic acid was a genuine standard with chemical structure confirmed by NMR and MS.
(§2) The four human gastrointestinal carcinoma cell lines were revived from cryostorage and cultured in the presence of the test and reference samples. An MTT assay was then performed on the cultures to determine the effect of the samples on the cell viability and proliferation.
(§3) The test sample 5-phenylpenta-2,4-dienoic acid, and all other test samples in Examples 4-12 (except tectochrysln) were Initially dissolved in pure ethanol to a concentration of around 13.35 mg/ml. Tectochrysin was initially dissolved in triethylene glycol mono-methyl ether to the same concentration. Working solutions were then prepared from the stock solutions by dilution to 15% ethanol/Hanks Balanced Salt Solution (ETOH)/HBSS to a concentration of 2 mg/mL solids. In the assay the final concentration of the samples was 200 μg/ml with a final EtOH concentration of 1.5%. Final concentrations of test compounds and propolis prepared as above are as noted in Example 3.
(§4) • 1. Human colorectal adenocarcinoma cells (ATCC CCI-221, DLD-1)(ATCC, Bethesda, Md., USA) • 2. Human gastric carcinoma cells (ATCC CRL-5822, NCI-N87)(ATCC, Bethesda, Md., USA) • 3. Human oesophageal squamous cell carcinoma (ECACC, KYSE-30)(Sigma Aldrich, Auckland, NZ) • 4. Human colon carcinoma cells (ECACC HCT-116)(Sigma Aldrich, Auckland, NZ) • 5. Penicillin-streptomycin solution: 10000 units/ml penicillin, 10 mg/ml streptomycin in 0.9% NaCl (Sigma Cat #P-0781). Stored at −20° C. • 6. For DLD-1 cells: DMEM culture medium (Invitrogen Cat #12100-046). Stored at 4° C. • 7. For NCI-N87 cells: RPMI-1640 medium modified to contain 2 mM L-glutamine, 10 mM HEPES, 1 mM sodium pyruvate, 4500 mg/L glucose, and 1500 mg/L sodium bicarbonate (Sigma R6504). Stored at 4° C. • 8. For KYSE-410 cells: RPMI-1640 medium modified to contain 2 mM L-glutamine (Sigma R6504). Stored at 4° C. • 9. For HCT-116 cells: McCoy's 5A medium modified to contain 2 mM L-glutamine (Sigma M48792). Stored at 4° C. • 10. Trypsin-EDTA solution: 0.25% Trypsin/EDTA, Invitrogen Cat#15400054 (×10 in stock). • 11. Phosphate buffered saline (PBS) (Prepared by TBL). • 12. Hanks Balanced Salt Solution (HBSS). (GIBCO Cat No. 14185-052). Stored at 4° C. • 13. Foetal Bovine Serum (GIBCO Cat #10091-148). Stored at −20° C. • 14. MTT Reagent: 100 mg/vial, (SIGMA Cat. No. M-2128) dissolved in PBS at 10 mg/ml and stored at −20° C. 5 mg/ml MTT solution will be prepared in PBS and stored at 4° C. as working solution. • 15. MTT lysis buffer: 10% sodium dodecyl sulphate (SDS)/45% Dimethyl Formamide (20 g SDS will be dissolved in 100 ml of double-distilled water (DDW), and 90 ml of Dimethyl Formamide will be added to the SDS solution). The pH will be adjusted to 4.7 by glacial acetic acid, and DDW added up to a final volume of 200 ml. • 16. 5-Fluorouracil (5-FU), (Sigma Cat. No. F-6627). Three working solutions will be prepared at 19.5 μg/ml. 6.5 μg/ml and 1.95 μg/ml dissolved in 15% Ethanol/HBSS. Final concentrations will be 1.95 μg/ml (15 μM), 0.65 μg/ml (5 μM) and 0.195 μg/ml (1.5 μM).
(§5) The medium for the propagation of the each of the cells lines is given above. Each medium was prepared following the ATCC/ECACC instructions and supplemented with penicillin-streptomycin solution (10 ml per litre). FBS (at 10%) was added just before use.
• 1. […]

In experiment [2] the test system is human gastric carcinoma cell line (NCI-N87). Description: MTT anti-proliferative assay, NCI-N87 (Examples 3-12). To be noted: 200 μg/ml; for % inhibition / % stim. / Mean OD (570 nm): 48 hours. Here is the method:
as §1, §2, §3, §4, §5
• 1. […]

In experiment [3] the test system is human oesophageal squamous cell carcinoma cell line (KYSE-30). Nature of the experiment: MTT anti-proliferative assay, KYSE-30 (Examples 3-13). To be noted: Examples 3-12, 200 μg/ml, 48 hours. The protocol:
as §1, §2, §3, §4, §5
• 1. […]
(In general: Formazan colour is commonly taken as a measure of viable cells.)

For experiment [4] the test system is unchanged. The description is as above.
For experiment [5], the system named is human colon cancer cell line (HCT-116). Description: MTT anti-proliferative assay, HCT-116 (Examples 3-12). To be noted: 200 μg/ml; for % inhibition / % stim. / Mean OD (570 nm): 48 hours. The protocol: as §1, §2, §3, §4, §5
• 1. […]

The subject of experiment [6] is human colorectal adenocarcinoma cells (DLD-1). Description: MTT proliferation assay, DLD-1 (Examples 1-2). To be noted: Example 2, DLD-1, sample 200 μg/mL, 24 hours incubation; for inhibition at 200 µg/mL: Homo sapiens. The protocol:
Test samples shown below in Table 2 were assessed for their ability to modulate the viability and proliferation of human colorectal adenocarcinoma cells (DLD-1) as assessed by the MTT assay. A positive control, 5-fluorouracil (5-FU) was included in addition to an unsupplemented cell control (negative control) in the study. The test samples were obtained by fractionation of propolis tincture.
Test samples shown below in Table 2 were assessed for their ability to modulate the viability and proliferation of human colorectal adenocarcinoma cells (DLD-1) as assessed by the MTT assay. A positive control, 5-fluorouracil (5-FU) was included in addition to an unsupplemented cell control (negative control) in the study.
Human colorectal adenocarcinoma epithelial cell lines were revived from cryostorage and cultured in the presence of the test and reference samples. The culture conditions for the cells were those described by the supplier of the cells (ATCC). An MTT assay was then performed on the cultures to determine the effect of the samples on the cell proliferation.
Working solutions were prepared by dissolving the test fractions in 15% ethanol (ETOH)/HBSS to a concentration of 2 mg/mL solids.
• 1. Human colorectal adenocarcinoma cells (ATCC CCI-221, DLD-1). • 2. Penicillin-streptomycin solution: 10000 units/mL penicillin, 10 mg/mL streptomycin in 0.9% NaCl (Sigma Cat #P-0781). Stored at −20° C. • 3. DMEM culture medium (Invitrogen Cat #12100-046) Stored at −20° C. • 4. Trypsin-EDTA solution: 0.25% Trypsin/EDTA, Invitrogen Cat#15400054 (×10 in stock). • 5. Phosphate buffered saline (PBS) (Prepared by TBL). • 6. Hanks Balanced Salt Solution (HBSS). (GIBCO Cat No. 14185-052). Stored at 4° C. • 7. Foetal Bovine Serum (GIBCO Cat #10091-148). Stored at −20° C. • 8. MTT Reagent: 100 mg/vial, (SIGMA Cat. No. M-2128) dissolved in PBS at 10 mg/mL and stored at −20° C. 5 mg/mL MTT solution were prepared in PBS and stored at 4° C. as working solution. • 9. MTT lysis buffer: 10% sodium dodecyl sulphate (SDS)/45% Dimethyl Formamide (20 g SDS was dissolved in 100 mL of double-distilled water (DDW), and 90 mL of Dimethyl Formamide added to the SDS solution). The pH was adjusted to 4.7 by glacial acetic acid, and DDW added up to a final volume of 200 mL. • 10. 5-Fluorouracil (5-FU), (Sigma Cat. No. F-6627). Two working solutions were prepared at 150 ng/mL and 75 ng/mL, dissolved in 15% Ethanol/HBSS. Final concentrations were 7.50 ng/mL and 3.75 ng/mL.
The medium for the propagation of the colorectal adenocarcinoma (DLD-1) cells was DMEM, supplemented with penicillin-streptomycin solution (10 mL per litre). FBS was added just before use to give 10% w/v.
• 1. The human colorectal adenocarcinoma cells (DLD-1) obtained from the American Type Culture Collection USA were revived from cryostorage. • 2. Following initial propagation using the media described above (see Medium Preparation), the culture was subcultured using the trypsin-EDTA as follows. The media was removed and 5 mL of the trypsin-EDTA solution added and incubated at 37° C. for 5 min or until all the cells had detached. The trypsin was neutralised by adding an equal volume of DMEM medium and the culture centrifuged at 300 g (1200 rpm) for 5 min at 4° C. • 3. The supernatant was decanted and the cell pellets resuspended in medium DMEM, FBS (10%), penicillin (100 units/mL), streptomycin (100 μg/mL). The cells were cultured at 37° C. in 5% CO2/95% air. • 4. After reaching confluence, the cells were detached using trypsin-EDTA and centrifuged as described in 2 above. • 5. The supernatants were discarded and the cells resuspended in DMEM and supplements as described in 3 above at 1.0×10^4 cells per mL. • 6. Into each well of three 96 well plates, 180 μl of the cells (1,800 cells/well) or medium was added. The plates were incubated at 5% CO2/95% air at 37° C. for 48 h which was sufficient to allow the cells to adhere. • 7. To each well, 20 μl of each, of the test samples or positive control was added. […]

Setting [7] is: listed as 1,1-dimethylallylcaffeic acid.

Several values for one entry are separate records, joined by “and”; a condition that tells them apart may be missing. Identical values can stand only once.

The % inhibition is the share of the control response that was lost under treatment. Broadly, the inhibition is how much of the control response was suppressed.

On to 1,1-dimethylallyl caffeic acid, for which the “% inhibition” value is recorded as 93.24% in experiment [1]; 93.2% in experiment [1] (setting [7]); 86.74% in experiment [2]; 86.7% in experiment [2] (setting [7]); 97.8% in experiment [3]; 88.63% in experiment [4] (Example 13, 100 μg/ml). The figures for the “% inhibition” value in experiment [5] and in experiment [5] (setting [7]) were 96.73% and 86.7%, respectively. Further, the “% stim.” value in experiment [1], in experiment [2], in experiment [3] and in experiment [5] was 0% in each case. In addition, the “Mean OD (570 nm)” value is listed as 0.0279 in experiment [1]; 0.0586 in experiment [2]; 0.0133 in experiment [3]; 0.0381 in experiment [4] (Example 13, 100 μg/ml); 0.0166 in experiment [5].

Consider `COc1cc(/C=C/C(=O)OCc2ccccc2)ccc1O` [benzyl ferulate], for which the “% inhibition” value is listed as 86.02% in experiment [1], 86.96% in experiment [2], 98.62% in experiment [3] and 95.92% in experiment [5]. In addition, the “% stim.” value in experiment [1], in experiment [2], in experiment [3] and in experiment [5] was 0% each time. Besides, the “Mean OD (570 nm)” value in experiment [1] amounted to 0.0576; in experiment [2], 0.0576; in experiment [3], 0.0083; in experiment [4] (Example 13, 50 μg/ml), 0.0398; in experiment [5], 0.0207. Also, the inhibition at 200 µg/mL is 86% in experiment [1] (Homo sapiens, DLD-1, 48 h); 87% in experiment [2] (Homo sapiens, NCI-N87, 48 h); 98.6% in experiment [3] (Homo sapiens, KYSE-30, 48 h); 95.9% in experiment [5] (Homo sapiens, HCT-116, 48 h). Besides, in experiment [4] (Homo sapiens, KYSE-30, Example 13, 50 μg/ml), the inhibition at 50 µg/mL amounted to 88.1%.

`C=C(C)CCOC(=O)C=Cc1ccc(O)c(O)c1` [3-methyl-3-butenyl caffeate, 3-methyl-3-butenyl caffeic acid]: the “% inhibition” value is 91.6% and 91.63% in experiment [1]; 84.5% and 84.54% in experiment [2]; 96.3% and 96.31% in experiment [3]; 39.3% and 39.33% in experiment [4] (Example 13, 10 μg/ml); 96.0% and 96.03% in experiment [5]. In addition, the “% stim.” value in experiment [1], in experiment [2], in experiment [3] and in experiment [5] was 0% in each case. The “Mean OD (570 nm)” value in experiment [1] came out at 0.0345; in experiment [2], 0.0683; in experiment [3], 0.0222; in experiment [4] (Example 13, 10 μg/ml) it was 0.2034; in experiment [5], 0.0202.

Take `O=C(/C=C/c1ccc(O)c(O)c1)OCCc1ccccc1` [CAPE, Caffeic acid phenethyl ester]: the inhibition at 200 µg/mL in experiment [6] was found to be 76%.

Regarding `O=C(O)/C=C/c1ccccc1` [Trans-Cinnamic acid], in experiment [6], the “Mean OD (570 nm)” value was 0.2390 and testing at 200 µg/mL gave an inhibition of 26.2%.

The values above are taken from patent US20160030364A1, “Therapeutic Compositions and Uses Thereof” (MANUKA HEALTH NEW ZEALAND LIMITED, priority 2013, published 2016).
